{"source": "patent US9113629B2", "about": "“4-amino-6-(4-substituted-phenyl)-picolinates and 6-amino-2-(4-substituted-phenyl)-pyrimidine-4-carboxylates and their use as herbicides” (DOW AGROSCIENCES LLC, priority 2013, dated 2015)", "key": {"[1]": {"test_system": "Key Broadleaf Weed and Crop Species", "experiment": "Post-emergent Test II herbicidal activity (Table 5)", "type": "in vivo", "conditions": "post-emergence, 336 h, 14 days after application; for pest or weed control at 70 g/ha: application rate 70 g ai/ha; for pest or weed control at 140 g/ha: application rate 140 g ai/ha", "method_in_brief": "(§1)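 Scoring: visual, 0–100% injury at 14 d versus untreated. Treatment: overhead track spray, 187 L/ha, onto plants at the first–second true leaf stage. Growth: greenhouse, ~15 h light, 23–29 °C day, 22–28 °C night.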"}, "[2]": {"test_system": "Key Grass and Sedge Weeds as well as Grass Crops", "experiment": "Post-emergent Test II herbicidal activity (Table 6)", "type": "in vivo", "conditions": "post-emergence, 336 h; for pest or weed control at 70 g/ha: 70 g ai/ha; for pest or weed control at 140 g/ha: 140 g ai/ha", "method_in_brief": "as §1"}, "[3]": {"conditions": "ABUTH: velvetleaf (Abutilon theophrasti), read-out: Visual Growth Reduction (%) 14 Days After Application, ABUTH"}, "[4]": {"conditions": "AMARE: redroot pigweed (Amaranthus retroflexus), read-out: Visual Growth Reduction (%) 14 Days After Application, AMARE"}, "[5]": {"conditions": "BRSNN: oilseed-rape, canola (Brassica napus), read-out: Visual Growth Reduction (%) 14 Days After Application, BRSNN"}, "[6]": {"conditions": "CHEAL: lambsquarters (Chenopodium album), read-out: Visual Growth Reduction (%) 14 Days After Application, CHEAL"}, "[7]": {"conditions": "EPHHL: wild poinsettia (Euphorbia heterophylla), read-out: Visual Growth Reduction (%) 14 Days After Application, EPHHL"}, "[8]": {"conditions": "HELAN: sunflower (Helianthus annuus), read-out: Visual Growth Reduction (%) 14 Days After Application, HELAN"}, "[9]": {"conditions": "VIOTR: wild pansy (Viola tricolor), read-out: Visual Growth Reduction (%) 14 Days After Application, VIOTR"}, "[10]": {"conditions": "CYPES: yellow nutsedge (Cyperus esculentus), read-out: Visual Growth Reduction (%) 14 Days After Application, CYPES"}, "[11]": {"conditions": "DIGSA: crabgrass (Digitaria sanguinalis), read-out: Visual Growth Reduction (%) 14 Days After Application, DIGSA"}, "[12]": {"conditions": "ECHCG: barnyardgrass (Echinochloa crus-galli), read-out: Visual Growth Reduction (%) 14 Days After Application, ECHCG"}, "[13]": {"conditions": "ORYSA: rice (Oryza sativa), crop, read-out: Visual Growth Reduction (%) 14 Days After Application, ORYSA"}, "[14]": {"conditions": "SETFA: giant foxtail (Setaria faberi), read-out: Visual Growth Reduction (%) 14 Days After Application, SETFA"}, "[15]": {"conditions": "SORVU: grain sorghum (Sorghum vulgare), read-out: Visual Growth Reduction (%) 14 Days After Application, SORVU"}, "[16]": {"conditions": "TRZSS (wheat, Triticum aestivum), crop, read-out: Visual Growth Reduction (%) 14 Days After Application, TRZSS"}, "[17]": {"conditions": "ZEAMX: maize, corn (Zea mays), crop, read-out: Visual Growth Reduction (%) 14 Days After Application, ZEAMX"}}, "note": "Where two headings read alike, the source gives them in different places.", "data": [{"smiles": "N#Cc1ccc(-c2nc(C(=O)O)c(Cl)c(N)c2F)cc1F", "note": "[Compound 156]", "values": [{"measurement": "pest or weed control at 70 g/ha", "setting": "[1]; [3]", "result": "60 to 74", "unit": "%"}, {"measurement": "pest or weed control at 140 g/ha", "setting": "[1]; [3]", "result": "75 to 84", "unit": "%"}, {"measurement": "pest or weed control at 70 g/ha", "setting": "[1]; [4]", "result": "95 to 100", "unit": "%"}, {"measurement": "pest or weed control at 140 g/ha", "setting": "[1]; [4]", "result": "95 to 100", "unit": "%"}, {"measurement": "pest or weed control at 70 g/ha", "setting": "[1]; [5]", "result": "75 to 84", "unit": "%"}, {"measurement": "pest or weed control at 140 g/ha", "setting": "[1]; [5]", "result": "85 to 94", "unit": "%"}, {"measurement": "pest or weed control at 70 g/ha", "setting": "[1]; [6]", "result": "95 to 100", "unit": "%"}, {"measurement": "pest or weed control at 140 g/ha", "setting": "[1]; [6]", "result": "95 to 100", "unit": "%"}, {"measurement": "pest or weed control at 70 g/ha", "setting": "[1]; [7]", "result": "85 to 94", "unit": "%"}, {"measurement": "pest or weed control at 140 g/ha", "setting": "[1]; [7]", "result": "85 to 94", "unit": "%"}, {"measurement": "pest or weed control at 70 g/ha", "setting": "[1]; [8]", "result": "95 to 100", "unit": "%"}, {"measurement": "pest or weed control at 140 g/ha", "setting": "[1]; [8]", "result": "95 to 100", "unit": "%"}, {"measurement": "pest or weed control at 70 g/ha", "setting": "[1]; [9]", "result": "60 to 74", "unit": "%"}, {"measurement": "pest or weed control at 140 g/ha", "setting": "[1]; [9]", "result": "60 to 74", "unit": "%"}, {"measurement": "pest or weed control at 70 g/ha", "setting": "[2]; [10]", "result": "60 to 74", "unit": "%"}, {"measurement": "pest or weed control at 140 g/ha", "setting": "[2]; [10]", "result": "85 to 94", "unit": "%"}, {"measurement": "pest or weed control at 70 g/ha", "setting": "[2]; [11]", "result": "60 to 74", "unit": "%"}, {"measurement": "pest or weed control at 140 g/ha", "setting": "[2]; [11]", "result": "75 to 84", "unit": "%"}, {"measurement": "pest or weed control at 70 g/ha", "setting": "[2]; [12]", "result": "75 to 84", "unit": "%"}, {"measurement": "pest or weed control at 140 g/ha", "setting": "[2]; [12]", "result": "85 to 94", "unit": "%"}, {"measurement": "pest or weed control at 70 g/ha", "setting": "[2]; [13]", "result": "0 to 29", "unit": "%"}, {"measurement": "pest or weed control at 140 g/ha", "setting": "[2]; [13]", "result": "0 to 29", "unit": "%"}, {"measurement": "pest or weed control at 70 g/ha", "setting": "[2]; [14]", "result": "85 to 94", "unit": "%"}, {"measurement": "pest or weed control at 140 g/ha", "setting": "[2]; [14]", "result": "95 to 100", "unit": "%"}, {"measurement": "pest or weed control at 70 g/ha", "setting": "[2]; [15]", "result": "60 to 74", "unit": "%"}, {"measurement": "pest or weed control at 140 g/ha", "setting": "[2]; [15]", "result": "60 to 74", "unit": "%"}, {"measurement": "pest or weed control at 70 g/ha", "setting": "[2]; [16]", "result": "45 to 59", "unit": "%"}, {"measurement": "pest or weed control at 140 g/ha", "setting": "[2]; [16]", "result": "60 to 74", "unit": "%"}, {"measurement": "pest or weed control at 70 g/ha", "setting": "[2]; [17]", "result": "75 to 84", "unit": "%"}, {"measurement": "pest or weed control at 140 g/ha", "setting": "[2]; [17]", "result": "75 to 84", "unit": "%"}]}]}
